Assay results taken from US20230242494A1, “MALONITRILE DERIVATIVES” (Hoffmann-La Roche Inc., priority 2020, published 2023).

biological target: T1, human cGAS (residues 161-522) (Homo sapiens, UniProt Q8N884); assay: cGAS Activity Assay—Malachite Green; type: biochemical; details: recombinant purified human cGAS 25 nM; 80 μM ATP, 80 μM GTP, 100 nM ISD; 4 hour at RT; phosphate detection by Malachite Green
T1 construct: human cGAS (residues 161-522); made in house
Procedure, shortened: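 Human cGAS (161-522, 25 nM) in 20 mM TRIS pH 7.5, 5 mM MgCl2, 0.01% BSA with 80 μM ATP, 80 μM GTP and 100 nM ISD DNA, 4 h at RT. Pyrophosphate converted by PPase, phosphate read with Malachite Green at 620 nm; IC50 from 4-parameter fit of 16-point series.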

T1 sequence (Q8N884 161-522): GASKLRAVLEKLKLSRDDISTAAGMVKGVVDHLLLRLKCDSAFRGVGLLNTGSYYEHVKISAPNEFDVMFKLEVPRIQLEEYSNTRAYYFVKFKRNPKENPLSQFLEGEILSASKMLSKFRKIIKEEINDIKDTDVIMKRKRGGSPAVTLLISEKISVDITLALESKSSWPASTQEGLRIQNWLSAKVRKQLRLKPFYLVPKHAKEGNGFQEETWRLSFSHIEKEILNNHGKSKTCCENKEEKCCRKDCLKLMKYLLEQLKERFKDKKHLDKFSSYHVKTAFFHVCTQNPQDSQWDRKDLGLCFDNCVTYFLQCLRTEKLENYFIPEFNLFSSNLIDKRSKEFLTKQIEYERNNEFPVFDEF

Q: How did the IC50 turn out when `Cc1oncc1/C(O)=C(\C#N)C(=O)Nc1ncc(C(=O)N(C)c2ccccc2)c(CCc2ccccc2)n1` [Example 134, (Z)-2-(2-cyano-3-hydroxy-3-(5-methylisoxazol-4-yl)acrylamido)-N-methyl-4-phenethyl-N-phenylpyrimidine-5-carboxamide] was run?
A: 1710 nM

Q: `Cc1oncc1/C(O)=C(\C#N)C(=O)Nc1ncc(C(=O)N(C)c2ccccc2)c(-c2ccccc2)n1` [Example 135, (Z)-2-(2-cyano-3-hydroxy-3-(5-methylisoxazol-4-yl)acrylamido)-N-methyl-N,4-diphenylpyrimidine-5-carboxamide] was tested. Which IC50 did it give?
A: 570 nM

Q: For `Cc1oncc1/C(O)=C(\C#N)C(=O)Nc1ncc(S(C)(=O)=O)c(-c2cccc(Cl)c2)n1` [Example 136, (Z)—N-(4-(3-chlorophenyl)-5-(methylsulfonyl)pyrimidin-2-yl)-2-cyano-3-hydroxy-3-(5-methylisoxazol-4-yl)acrylamide], which IC50 is on record?
A: 70 nM

Q: How did the IC50 turn out when `Cc1oncc1/C(O)=C(\C#N)C(=O)Nc1ncc(S(C)(=O)=O)c(-c2cccc(F)c2)n1` [Example 137, (Z)-2-cyano-N-(4-(3-fluorophenyl)-5-(methylsulfonyl)pyrimidin-2-yl)-3-hydroxy-3-(5-methylisoxazol-4-yl)acrylamide] was run?
A: 60 nM

Q: `Cc1oncc1/C(O)=C(\C#N)C(=O)Nc1ncc(S(C)(=O)=O)c(CCc2ccccc2)n1` [Example 138, (Z)-2-cyano-3-hydroxy-3-(5-methylisoxazol-4-yl)-N-(5-(methylsulfonyl)-4-phenethylpyrimidin-2-yl)acrylamide] was tested. Which IC50 did it give?
A: 200 nM

Q: `Cc1oncc1/C(O)=C(\C#N)C(=O)Nc1ncc(S(=O)(=O)c2ccccc2)c(-c2cccc(F)c2)n1` [Example 139, (Z)-2-cyano-N-(4-(3-fluorophenyl)-5-(phenylsulfonyl)pyrimidin-2-yl)-3-hydroxy-3-(5-methylisoxazol-4-yl)acrylamide] was tested. Which IC50 did it give?
A: 60 nM

Q: How did the IC50 turn out when `Cc1oncc1/C(O)=C(\C#N)C(=O)Nc1ncc(S(C)(=O)=O)c(-c2ccccc2Cl)n1` [Example 140, (Z)-N-(4-(2-chlorophenyl)-5-(methylsulfonyl)pyrimidin-2-yl)-2-cyano-3-hydroxy-3-(5-methylisoxazol-4-yl)acrylamide] was run?
A: 240 nM

Q: For `CCc1oncc1/C(O)=C(\C#N)C(=O)Nc1ccc(C(F)(F)F)cc1` [Example 141, (Z)-2-cyano-3-(5-ethylisoxazol-4-yl)-3-hydroxy-N-(4-(trifluoromethyl)phenyl)acrylamide], which IC50 is on record?
A: 6450 nM

Q: How did the IC50 turn out when `N#C/C(C(=O)Nc1ccc(C(F)(F)F)cc1)=C(/O)c1cnoc1` [Example 142, (Z)-2-cyano-3-hydroxy-3-(isoxazol-4-yl)-N-(4-(trifluoromethyl)phenyl)acrylamide] was run?
A: 5190 nM

Q: How did the IC50 turn out when `Cc1oncc1/C(O)=C(\C#N)C(=O)Nc1cccc(CO)c1` [Example 143, (Z)-2-Cyano-3-hydroxy-N-[3-(hydroxymethyl)phenyl]-3-(5-methylisoxazol-4-yl)prop-2-enamide] was run?
A: 960 nM

Q: For `Cc1oncc1/C(O)=C(\C#N)C(=O)Nc1cccc(C(=O)O)c1` [Example 144, 3-[[(Z)-2-Cyano-3-hydroxy-3-(5-methylisoxazol-4-yl)prop-2-enoyl]amino]benzoic acid], which IC50 is on record?
A: 330 nM

Q: For `Cc1oncc1/C(O)=C(\C#N)C(=O)Nc1ccc(CC(=O)O)cc1` [Example 145, 2-[4-[[(Z)-2-Cyano-3-hydroxy-3-(5-methylisoxazol-4-yl)prop-2-enoyl]amino]phenyl]acetic acid], which IC50 is on record?
A: 470 nM
